For data set [1], the system named is pyloric ligation ulcer. Kind of data set: Pyloric ligation ulcer model (antiulcer activity). As to conditions: rats, oral 30 min prior to pyloric ligation, 4 h, compounds 100 mg/kg, omeprazole 40 mg/kg; for Free acid / Total acid: gastric contents. In kind it is in vivo, rat. The procedure:
Pyloric ligation ulcer models were used to test each of compounds (2)-(4) for antiulcer activity. Male rats (140 and 175 g) were selected for pyloric ligation ulcer model experiments and divided into eleven groups consisting of six animals each. The rats were fasted overnight. One group received normal saline 2 ml/kg (negative control), the second group received omeprazole 40 mg/kg (positive control) and the other groups received each of the compounds (2)-(4) (100 mg/kg) by oral route 30 min prior to pyloric ligation. Animals were sacrificed 4 h later and their stomachs were opened to collect the gastric contents. The gastric contents were centrifuged at 1000 rpm for 10 min. One ml of the supernatant liquid was pipetted out and diluted to a total volume of 10 ml with distilled water. The solution was titrated against 0.01 N sodium hydroxide solution using Topfer's reagent to indicate the end point when the solution turned […]. The volume of NaOH consumed was taken as corresponding to the free acidity. Titration was further continued until the solution regained pink color. The volume of sodium hydroxide solution required to achieve the pink color was noted and total acidity calculated. After opening the stomach, the ulcer index was calculated.
The results are expressed as mean±SEM. The difference between groups was determined using the one way analysis of variance (ANOVA) followed by Dunnett's test. P<0.05 was considered significant.

Data set [2] has as its target T1, Human COX-2 (Homo sapiens, UniProt P35354).
T1 sequence (P35354 18-604): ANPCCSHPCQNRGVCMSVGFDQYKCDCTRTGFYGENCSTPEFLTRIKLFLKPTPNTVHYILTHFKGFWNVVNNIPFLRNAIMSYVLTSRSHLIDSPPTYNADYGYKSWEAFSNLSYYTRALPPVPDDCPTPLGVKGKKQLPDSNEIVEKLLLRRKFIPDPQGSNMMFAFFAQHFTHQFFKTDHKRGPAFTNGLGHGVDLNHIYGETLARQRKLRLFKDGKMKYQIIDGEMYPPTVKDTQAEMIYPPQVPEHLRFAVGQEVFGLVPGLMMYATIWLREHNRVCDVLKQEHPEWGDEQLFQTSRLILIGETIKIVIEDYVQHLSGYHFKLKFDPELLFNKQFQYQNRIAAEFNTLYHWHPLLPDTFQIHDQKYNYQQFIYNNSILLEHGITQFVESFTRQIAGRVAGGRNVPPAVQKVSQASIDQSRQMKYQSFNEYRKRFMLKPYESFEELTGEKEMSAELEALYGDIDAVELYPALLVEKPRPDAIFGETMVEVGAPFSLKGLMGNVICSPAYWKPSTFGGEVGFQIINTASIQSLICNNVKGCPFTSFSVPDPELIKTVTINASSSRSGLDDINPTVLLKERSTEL
In words: Human COX-2 enzymatic assay. To be noted: for pIC50: 5 min pre-incubation, 45 min incubation with [14C]-arachidonic acid at 24° C.; for Approximate selectivity ratio COX-1/COX-2: ratio of COX-1 IC50 to COX-2 IC50. Format: biochemical. The procedure:
(§1) Human COX-1 and COX-2 activities were determined as described by Wakitani et al. 0.2 ml of 100 mmol Tris HCl buffer (pH 8) containing hematin (2 mmol) and tryptophan (5 mmol) as cofactors. The reaction mixture was pre-incubated with each test compound individually for 5 min at 24° C. [14C]-arachidonic acid (100.00 dpm, 30 mmol) was added to the mixture and then incubated for 2 min (for COX-1) or 45 min (for COX-2) at 24° C. The reaction was stopped by the addition of 400 μl of a solution composed of Et2O/MeOH/1 M citric acid (30:4:1, v/v/v). After centrifugation of the mixture at 1700×/g for 5 min at 4° C., 50 μl of the upper phase was applied to a thin layer chromatography plate. Thin layer chromatography was performed at 4° C. with solvent system of Et2O/MeOH/AcOH (90:2:0.1, v/v/v). Enzyme activity was calculated from the percent conversion of arachidonic acid to PGH2 and its de-composition products, using radiometric photographic system.

Data set [3] concerns the target Human COX-1 (Homo sapiens, UniProt P23219). In words: Human COX-1 enzymatic assay. Format: biochemical. As to conditions: 5 min pre-incubation, 2 min incubation with [14C]-arachidonic acid at 24° C. The procedure:
as §1

Data set [4] can be described thus: Acute toxicity in mice. To be noted: mouse, in vivo; male mice; route for the LD50 not stated (oral and intraperitoneal tests described). The procedure:
[…]. The animals were divided into groups of six mice each. The compounds were given orally, suspended in 1% gum acacia, in doses of 1, 10, 100, 200, 250, 300 mg/kg.
The mortality percentage in each group was recorded after 24 h.
Additionally, the test compounds were investigated for their parenteral acute toxicity in groups of six mice each as reported earlier. The compounds, or their vehicle propylene glycol (control), were given by intraperitoneal injection in doses of 10, 25, 50, 75, 100 mg/kg. The percentage survival was followed up to seven days.

The subject of data set [5] is carrageenan-induced rat paw edema. In words: Carrageenan-induced rat paw edema. In kind it is in vivo. To be noted: for % Protection / Increase in paw edema (ml) ± SEM: 10 μmol/kg s.c. 1 h prior to carrageenan; for % Protection: 4 h, relative to DMSO control; for Increase in paw edema (ml) ± SEM: increase between 0 h and 4 h; for Activity relative to indomethacin: 10 μmol/kg s.c., indomethacin = 100. The procedure: Male albino rats weighing 120-150 g were used in these experiments. The rats were kept in an animal house under standard conditions of light and temperature with free access to food and water. The animals were randomly divided into groups of six rats each for each experimental and control group. The paw edema was induced by subplantar injection of […] of 2% carrageenan solution in saline (0.9%). […] A control group was injected with DMSO only. The volume of paw edema (ml) was determined by means of a plethysmometer immediately after carrageenan injection and 4 h later. The increase in paw volume between 0 h and 4 h after carrageenan injection was measured. The percentage protection against inflammation was calculated according to the following formula: % Protection=100%×(Vc−Vd)/Vc where Vc is the 4 h increase in paw volume in the control animals (control) and Vd is the 4 h increase in paw volume in the test animals. Data are expressed as the mean±SEM. Significant difference between the control and test groups was determined using Student's t-test and P values. The difference in results was considered significant when P<0.001.
In general terms: Carrageenan injected into the paw causes an acute inflammation.

pIC50: −log10 of the molar value. Where “and” joins values, the source holds several entries; their conditions need not be identical. Equal entries are not always repeated.

Sequence of Human COX-1 (P23219 24-599): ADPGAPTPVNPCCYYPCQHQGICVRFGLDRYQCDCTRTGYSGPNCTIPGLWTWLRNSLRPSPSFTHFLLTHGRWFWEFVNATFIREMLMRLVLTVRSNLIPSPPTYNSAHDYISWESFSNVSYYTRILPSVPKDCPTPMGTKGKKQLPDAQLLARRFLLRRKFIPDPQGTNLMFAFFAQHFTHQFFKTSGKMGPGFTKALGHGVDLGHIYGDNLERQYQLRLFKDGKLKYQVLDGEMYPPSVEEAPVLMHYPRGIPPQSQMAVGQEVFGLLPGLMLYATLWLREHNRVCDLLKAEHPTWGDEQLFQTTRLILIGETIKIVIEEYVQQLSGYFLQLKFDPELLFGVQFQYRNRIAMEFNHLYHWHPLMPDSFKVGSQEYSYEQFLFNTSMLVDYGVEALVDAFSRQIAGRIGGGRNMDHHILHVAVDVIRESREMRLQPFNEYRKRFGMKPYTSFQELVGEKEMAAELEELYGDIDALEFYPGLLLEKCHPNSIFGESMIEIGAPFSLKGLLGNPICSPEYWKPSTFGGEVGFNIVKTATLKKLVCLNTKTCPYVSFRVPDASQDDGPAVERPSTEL

Consider `CC1(C(=O)O)CCC2(C)CCC3(C)C(=CC(=O)C4C5(C)C/C(=C\c6ccc(F)cc6)C(=O)C(C)(C)C5CCC43C)C2C1` (stereo not drawn) [Compound 2, 2-(4-fluorobenzylidene)-3,11-dioxo-18β-olean-12-en-30-oic acid], for which, in data set [1], the Free acid was determined as 0.09 mEq/L, the Total acid turned out to be 0.09 mEq/L and the “Ulcer Index” value came to 1.16. Besides, in data set [2], the pIC50 (as a rule, the negative decadic logarithm of the IC50, by convention in mol/L) is 6.96 and the “Approximate selectivity ratio COX-1/COX-2” value was determined as 2733.94. The same compound gave a pIC50 in data set [3] of 3.53. For the same compound, the LD50 (as a rule, the dose expected to kill half of the subjects tested) in data set [4] is 3100 mg/kg. Besides, in data set [5], the “% Protection” value was 98.40%, the “Increase in paw edema (ml) ± SEM” value came out at 0.0157 ± 0.0004 mL and the “Activity relative to indomethacin” value is listed as 132.09.

Take `Cn1nc2c(c1-c1ccc(F)cc1)CC1(C)C(CCC3(C)C1C(=O)C=C1C4CC(C)(C(=O)O)CCC4(C)CCC13C)C2(C)C` (stereo not drawn) [Compound 3, 2-(4-fluorobenzylidene)-3,11-dioxo-18β-olean[3,2-c]-1′H-5′-(4-fluorophenyl)-N-methylpyrazoline-12-en-30-oic acid]: in data set [1], the Free acid is 0.08 mEq/L, the Total acid is given as 0.08 mEq/L and the “Ulcer Index” value came to 1.12. Also, in data set [2], the negative logarithm of the IC50 (pIC50) is 7.04; the “Approximate selectivity ratio COX-1/COX-2” value is 3438.57 and 3428.57. The compound further showed a negative-log IC50 (pIC50) in data set [3] of 3.51. Moreover, the LD50 in data set [4] stood at 3360 mg/kg. In addition, in data set [5], the “% Protection” value came to 98.49%, the “Increase in paw edema (ml) ± SEM” value was determined as 0.0148 ± 0.0003 mL and the “Activity relative to indomethacin” value is 132.21.

With `Cn1nc2c(c1-c1ccc(F)cc1)CC1(C)C(CCC3(C)C1C(=O)C=C1C4CC5(C)CC(OC5=O)C4(C)CCC13C)C2(C)C` (stereo not drawn) [Compound 4, 2-(4-fluorobenzylidene)-3,11-dioxo-18β-olean[3,2-c]-1′H-5′-(4-fluorophenyl)-N-methylpyrazoline-12-en-30-oic acid (30→22β) lactone], in data set [1], the Free acid turned out to be 0.06 mEq/L, the Total acid is 0.06 mEq/L and the “Ulcer Index” value was found to be 1.04. In addition, in data set [2], the negative logarithm of the IC50 (pIC50) was 7.06 and the “Approximate selectivity ratio COX-1/COX-2” value turned out to be 3965.52. The pIC50 in data set [3] is 3.46. This compound registered an LD50 in data set [4] of 3460 mg/kg. Besides, in data set [5], the “% Protection” value came to 98.77%, the “Increase in paw edema (ml) ± SEM” value turned out to be 0.0121 ± 0.0002 mL and the “Activity relative to indomethacin” value was 132.58.

The record behind these values is US9896476B1, “Glycyrrhetic acid derivatives” (KING SAUD UNIVERSITY, priority 2017, dated 2018).
